Data set [1] can be described thus: Animal long-term toxicity test, conversion to human maximum tolerated dose. The following applies: converted from animal long-term toxicity test, human body weight of 60 kg. It is filed as in vivo. Here is the method:
A specific dose and administration frequency can be determined by a skilled physician according to conventional skills allowing for factors such as the route of administration, the health condition of the patient, etc. In the first dose escalation study (phase I trial) in a human, the most sensitive animal species were selected to calculate the maximum recommended starting dose for clinical trials according to the pre-clinical toxicology study. The starting dose was calculated according to the calculation methods recommended by "Technical Guidelines for Non-Clinical Research on Anti-Cancer Drugs" and other guidelines. In some embodiments, in the phase 1 clinical trial of compound (I), in order to ensure the safety of subjects, in combination with the operability of clinical trials and formulation specification, the starting dose of compound (I) for the phase I clinical trial was designed to be 5 mg. Based on the results of an animal long-term toxicity test, the maximum tolerated dose for the human body is converted into 200 mg according to the human body weight of 60 kg. In the phase 1 clinical trial of compound (I), the safety, tolerance, and efficacy of the continuous administration regimen of a daily administration dose of 5 mg-200 mg were researched. […]

Data set [2] has as its system meningioma cells IOMM-Lee. As to the kind of experiment: EdU cell proliferation assay. In kind it is cell-based, human. As to conditions: 1 µM, 24 h, versus blank control group. As for the experimental part: The IOMM-Lee single cell suspension in the logarithmic growth phase obtained in Example 1 was seeded in a 6-well plate at a cell density of 3 × 10^5 cells/mL, cultured overnight, and grouped into a blank control group and a compound (I) treatment group (concentration: 1 µM; treatment duration: 24 h). Subsequently, each group was incubated with EdU (10 µM) for 2 h; the culture medium was discarded; and the cells were washed with PBS (in this experiment, PBS was used in the washing process). The cells were fixed with 4% paraformaldehyde; the stationary liquid was discarded; and the cells were washed. After that, the cells were permeabilized with 0.3% Triton X100; the permeabilization liquid was discarded; and the cells were washed. Then, a prepared click reaction solution (commercially available C0081 BeyoClick™ EdU Cell Proliferation Kit with Alexa Fluor 647) was added; the mixture was incubated in the dark at room temperature for 30 min; the reaction solution was discarded; and the cells were washed. The cell nuclei were stained with Hoechst 33342 fluorescent dye by adding 1× Hoechst 33342 solution at 1 mL/well, followed by incubated in the dark at room temperature for 10 min; 1× Hoechst 33342 solution was removed by pipetting; and the cells were washed 3 times. Subsequently, a fluorescence assay was performed, and the results were recorded.

The subject of data set [3] is Human meningioma cell line IOMM-Lee cells. The data set can be described thus: Trypan blue viable cell counting, cell viability. It is filed as cell-based. As to conditions: 24 h. Here is the method:
Human meningioma cell line IOMM-Lee cells (purchased from ATCC) were cultured using a DMED culture medium containing 10% FBS and 100 U/mL penicillin-streptomycin double antibiotics in an incubator with 5% CO2 at 37 °C. The cells in the logarithmic growth phase were seeded uniformly in a 6-well plate at a density of 2 × 10^5 cells/mL and cultured for 24 h, and then the cells were grouped into a blank control group and compound (I) treatment groups at different concentrations. The compound (I) treatment concentrations were 0.4 µM, 0.8 µM, 1.6 µM, 2 µM, 10 µM, 20 µM, 60 µM, and 120 µM, and 3-4 replicate wells were set for each group. After cells in the groups were separately cultured for 24 h, the cells were digested with 0.25% trypsin, and 50 µL of each cell suspension was mixed with 50 µL of 0.4% trypan blue solution to a final trypan blue concentration of 0.2%. Subsequently, 10 µL of the uniform cell suspension was added to a counting plate and counted under a microscope for the total cell count and dead cell count. Statistical analysis was performed.

Regarding `Cc1cc(NC(=O)c2cccc3cc(-c4cccc5[nH]nc(N)c45)ccc23)ccc1F` [compound (I)], in data set [1], the “maximum tolerated dose for the human body” value was determined as 200 mg. Also, in data set [2], the “EdU-labeled (proliferating) cells” value is “significantly fewer than those in the blank control group”. Also, the viability – broadly, a per cent measure of how many cells are alive, often set against a control – at 0.4 µM in data set [3] (compound (I) 0.4 µM) was determined as 71.8 ± 4.06%. The molecule further came in with a viability at 0.8 µM in data set [3] (compound (I) 0.8 µM) of 56.8 ± 5.19%. Moreover, the viability at 1.6 µM in data set [3] (compound (I) 1.6 µM) stood at 48.3 ± 10.5%. In data set [3] (compound (I) 2 µM), the viability at 2 µM came to 45.3 ± 1.91%. In data set [3] (compound (I) 10 µM), the viability at 10 µM came out at 35 ± 3.93%. Besides, the viability at 20 µM in data set [3] (compound (I) 20 µM) amounted to 22.6 ± 2.72%. In data set [3] (compound (I) 60 µM), this molecule displayed a viability at 60 µM of 19.3 ± 0.52%. The molecule further returned a viability at 80 µM in data set [3] (compound (I) 80 µM) of 6.33 ± 1.71%. In data set [3] (compound (I) 120 µM), this molecule had a viability at 120 µM of 0%.

Source of the values: patent EP4678172A1, “USE OF NAPHTHYLAMIDE COMPOUND IN TREATMENT OF MENINGIOMA” (Shanghai Runshi Medical Technology Co., Ltd, priority 2023, dated 2024).
